Source: ChEMBL document CHEMBL1141478, “Lysianadioic acid, a carboxypeptidase B inhibitor from Lysiana subfalcata” (Bioorg Med Chem Lett, 2008)

Biological target: T1, Carboxypeptidase B (Homo sapiens, UniProt P15086)
T1 sequence (P15086 whole entry): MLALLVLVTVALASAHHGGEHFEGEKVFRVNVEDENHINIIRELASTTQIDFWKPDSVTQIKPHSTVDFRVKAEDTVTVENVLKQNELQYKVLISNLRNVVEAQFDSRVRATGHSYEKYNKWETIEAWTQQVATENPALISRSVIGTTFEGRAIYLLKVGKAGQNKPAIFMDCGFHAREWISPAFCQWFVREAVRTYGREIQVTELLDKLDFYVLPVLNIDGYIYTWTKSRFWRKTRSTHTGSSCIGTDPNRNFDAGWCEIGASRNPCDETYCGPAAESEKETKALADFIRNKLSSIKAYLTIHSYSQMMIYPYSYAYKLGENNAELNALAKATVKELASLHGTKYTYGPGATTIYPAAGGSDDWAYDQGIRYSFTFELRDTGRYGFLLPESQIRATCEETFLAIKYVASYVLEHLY
Assay: Inhibition of carboxypeptidase B

Compound `N=C(N)NCC/C=C(/CC(=O)O)C(=O)O` [LYSIANADIOIC ACID] has an IC50 of 360 nM.
